Molecular target: T1, p70S6K (Homo sapiens, UniProt P23443, T412E)
T1 construct: human p70S6 kinase domain residues 1-421, containing a T412E mutation; made in house
Assay: p70S6 Kinase Assay (Luciferase-Coupled Chemiluminescent Kinase assay, LCCA)
Type: biochemical
Settings: human p70S6 kinase domain residues 1-421, T412E; 5 μM ATP; read-out: p70S6K IC50
Experimental: Kinase activity and compound inhibition are investigated using one or more of the three assay formats described below. The ATP concentrations for each assay are selected to be close to the Michaelis-Menten constant (KM) for each individual kinase. Dose-response experiments are performed at 10 different inhibitor concentrations in a 384-well plate format. […] Y=Min+(Max−Min)/(1+(X/IC50)^H) Equation (2) p70S6 Kinase Assay
Biochemical activity of p70S6 kinase was assessed using a Luciferase-Coupled Chemiluminescent Kinase assay (LCCA) format. Kinase activity was measured as the percent ATP remaining following the kinase reaction. Remaining ATP was detected by luciferase-luciferin-coupled chemiluminescence. […] The mixture is incubated at ambient temperature for 2 hours after which 20 μL luciferase-luciferin mix is added and the chemiluminescent signal read using a Wallac Victor^2 reader.

T1 sequence (P23443 1-421 T412E): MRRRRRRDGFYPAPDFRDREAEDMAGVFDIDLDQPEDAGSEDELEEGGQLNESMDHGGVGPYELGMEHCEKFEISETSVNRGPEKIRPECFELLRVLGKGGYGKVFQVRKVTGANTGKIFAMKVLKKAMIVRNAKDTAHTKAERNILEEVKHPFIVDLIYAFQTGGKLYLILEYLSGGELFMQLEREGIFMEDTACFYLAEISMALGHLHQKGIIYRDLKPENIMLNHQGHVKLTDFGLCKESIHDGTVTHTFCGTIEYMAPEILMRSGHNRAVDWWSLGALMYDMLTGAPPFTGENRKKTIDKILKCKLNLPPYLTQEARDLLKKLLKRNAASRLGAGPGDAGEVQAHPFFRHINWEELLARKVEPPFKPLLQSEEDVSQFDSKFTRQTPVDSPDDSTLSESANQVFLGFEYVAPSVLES

Question: For CSc1nc(N)nc(OC(C(=O)Nc2cccc(C(F)(F)F)c2)C(C)C)c1C#N (stereo in doubt) [Example 70, (2S)-2-{[2-amino-5-cyano-6-(methylthio)pyrimidin-4-yl]oxy}-3-methyl-N-[3-(trifluoromethyl)phenyl]butanamide], which IC50 is on record?
Answer: > 2000 nM

Question: With CSc1nc(NC(C)=O)nc(SCC(=O)Nc2cccc(C(F)(F)F)c2)c1C#N [Example 41, 2-{[2-(acetylamino)-5-cyano-6-(methylthio)pyrimidin-4-yl]thio}-N-[3-(trifluoromethyl)phenyl]acetamide] as the compound, how does the IC50 read?
Answer: 50 to 500 nM

Question: Which IC50 does the source give for CNc1nc(N)nc(SCC(=O)Nc2cccc(C(F)(F)F)c2)c1C=O [Example 45, 2-{[2-amino-5-formyl-6-(methylamino)pyrimidin-4-yl]thio}-N-[3-(trifluoromethyl)phenyl]acetamide] here?
Answer: 50 to 500 nM

Question: CSc1nc(N)nc(OCC(=O)Nc2cccc(C(F)(F)F)c2)c1C=O [Example 46, 2-{[2-amino-5-formyl-6-(methylthio)pyrimidin-4-yl]oxy}-N-[3-(trifluoromethyl)phenyl]acetamide] was tested. Which IC50 did it give?
Answer: 50 to 500 nM

Question: Which IC50 does the source give for CSc1nc(N)nc(OCC(=O)Nc2cccc(C(F)(F)F)c2)n1 [Example 47, 2-{[4-amino-6-(methylthio)-1,3,5-triazin-2-yl]oxy}-N-[3-(trifluoromethyl)phenyl]acetamide] here?
Answer: 50 to 500 nM

Question: Which IC50 does the source give for CSc1cc(SCC(=O)Nc2cccc(C(F)(F)F)c2)nc(N)n1 [Example 48, 2-{[2-amino-6-(methylthio)pyrimidin-4-yl]thio}-N-[3-(trifluoromethyl)phenyl]acetamide] here?
Answer: 50 to 500 nM

Question: Nc1nc(Cl)c(C=O)c(OCC(=O)Nc2cccc(C(F)(F)F)c2)n1 [Example 50, 2-[(2-amino-6-chloro-5-formylpyrimidin-4-yl)oxy]-N-[3-(trifluoromethyl)phenyl]acetamide] was tested. Which IC50 did it give?
Answer: 50 to 500 nM

Question: For Nc1nc(SCC(=O)Nc2cccc(C(F)(F)F)c2)c(C=O)c(Sc2ccccc2)n1 [Example 51, 2-{[2-amino-5-formyl-6-(phenylthio)pyrimidin-4-yl]thio}-N-[3-(trifluoromethyl)phenyl]acetamide], which IC50 is on record?
Answer: 50 to 500 nM

Question: For Nc1nc(SCC(=O)Nc2cccc(C(F)(F)F)c2)c(CO)c(Sc2ccccc2)n1 [Example 52], which IC50 is on record?
Answer: 50 to 500 nM

Question: How did the IC50 turn out when CSc1nc(N)nc(SCC(=O)Nc2cccc(C(F)(F)F)c2C)c1C#N [Example 53, 2-{[2-amino-5-cyano-6-(methylthio)pyrimidin-4-yl]thio}-N-[2-methyl-3-(trifluoromethyl)phenyl]acetamide] was run?
Answer: 500 to 2000 nM

Question: COc1ccc(C(F)(F)F)cc1NC(=O)CSc1nc(N)nc(SC)c1C#N [Example 54, 2-{[2-mino-5-cyano-6-(methylthio)pyrimidin-4-yl]thio}-N-[2-(methyloxy)-5-(trifluoromethyl)phenyl]acetamide] was tested. Which IC50 did it give?
Answer: 500 to 2000 nM

Question: CSc1nc(N)nc(SCC(=O)Nc2cc(C(F)(F)F)ccc2Cl)c1C#N [Example 55, 2-{[2-amino-5-cyano-6-(methylthio)pyrimidin-4-yl]thio}-N-[2-chloro-5-(trifluoromethyl)phenyl]acetamide] was tested. Which IC50 did it give?
Answer: 500 to 2000 nM

Question: For CSc1nc(N)nc(OCC(=O)Nc2cccc(C(F)(F)F)c2)c1CO [Example 56, 2-{[2-amino-5-(hydroxymethyl)-6-(methylthio)pyrimidin-4-yl]oxy}-N-[3-(trifluoromethyl)phenyl]acetamide], which IC50 is on record?
Answer: 500 to 2000 nM

Question: With Nc1nc(NCC(=O)Nc2cccc(C(F)(F)F)c2)c2cn[nH]c2n1 [Example 57, N^2-(6-amino-1H-pyrazolo[3,4-d]pyrimidin-4-yl)-N-[3-(trifluoromethyl)phenyl]glycinamide] as the compound, how does the IC50 read?
Answer: 500 to 2000 nM

Question: How did the IC50 turn out when CSc1nc(N)nc(NCC(=O)Nc2cccc(C(F)(F)F)c2)c1/C=N/N [Example 58, N^2-[2-amino-5-[(E)-hydrazonomethyl]-6-(methylthio)pyrimidin-4-yl]-N-[3-(trifluoromethyl)phenyl]glycinamide] was run?
Answer: 500 to 2000 nM

Same assay, conditions: p70S6K IC50, human p70S6 kinase domain residues 1-421, T412E; 5 μM ATP

Question: For CSc1nc(N)nc(O[C@@H](C)C(=O)Nc2cccc(C(F)(F)F)c2)c1C#N [Example 42, (2S)-2-{[2-amino-5-cyano-6-(methylthio)pyrimidin-4-yl]oxy}-N-[3-(trifluoromethyl)phenyl]propanamide], which IC50 is on record?
Answer: 50 to 500 nM

— US7816353B2 (Exelixis, Inc., priority 2003, dated 2010)
